Assay results from patent US9814778B2, “Ionically crosslinked polyelectrolytes as underwater adhesives as controlled release vehicles” (The University of Toledo, priority 2014, dated 2017).

What was measured:
[1] = Dye release from dye-loaded complexes in 1×PBS at 37° C. (UV-Vis); type: physicochemical; conditions: PAH/PPi and PAH/TPP complexes, 7-8 mm plugs, time span of up to 164 days
Method: The supernatant was removed from the microcentrifuge tube, and the inside of the tube was rinsed with DI water to ensure all excess supernatant was removed. The release medium, 1 ml of 1×PBS, was then added to the microcentrifuge tube. During the release evaluations, the contents of the microcentrifuge tube was mixed at 400 rpm in an Ependorf Thermomixer at 37° C. The old PBS solution was replaced with fresh PBS daily. UV-Vis spectroscopy was used to determine the amount of dye released within this one day interval. The concentration of dye in the PBS was determined using the absorbance of the solution as described above. These release studies were run until the amount of dye released in one day became so low that a discernable peak in the UV-Vis spectrum could not be obtained. The weight of the adhesives was also tracked during the release process using the procedure described above. Each release experiment was repeated thrice to ensure reproducibility. An additional release study was run (using the same complex/dye compositions) with tap water at room temperature as the release medium.
The released dye concentration in the PBS was determined using UV-Vis spectroscopy, with the PBS being replaced daily. This procedure was repeated until discernable UV-Vis peaks could no longer be obtained from the PBS samples in order to obtain release profiles. […]

[2] = Dye loading efficiency and loading capacity of dye-loaded coacervates (UV-Vis of supernatant); type: physicochemical
Method: All solutions were adjusted to pH 7 using HCl and NaOH prior to mixing. The mixtures were than centrifuged at 15,000 rpm for 90 min using an Ependorf centrifuge. […] The loading capacity (LC) and loading efficiency (LE) for each loading procedure was calculated by subtracting the mass of dye in the supernatant from the total mass of dye originally in the solutions in the microcentrifuge tubes. The total dye mass in the supernatant was determined by measuring the supernatant mass in each tube and determining the supernatant dye concentration using UV-Vis spectroscopy (Varian Cary 50 Spectrophotometer) and the absorbance at a wavelength of 614 nm (ε=9.57×103 m2/mol) and 555 nm (ε=9.82×103 m2/mol) for Fast Green FCF and Rhodamine B, respectively. The LC and LE were then calculated using the following equations: […]
Similarly, the LEs of the dye-loaded complexes was measured at a constant initial dye concentration of 1 mg/ml while the PAH concentration was varied. The dye-loaded complex samples were prepared as outlined above; however, the PAH concentration was varied (between 2.5 and 10.0 wt %). […] The LC- and LE-values were then determined using Equations 1 and 2.

[3] = test system: PAH/TPP complexes; assay: Isothermal titration calorimetry of dyes into PAH/TPP dispersion; type: binding; conditions: pH 7
Method: (§1) The Fast Green FCF and Rhodamine B solutions were then prepared at concentrations of 0.43 and 0.80 wt %, respectively. All solutions were adjusted to pH 7 using HCl and NaOH. ITC experiments were run by placing the PAH/PPi or PAH/TPP complex solutions in the sample cell, and loading the dye solution into the injector. The dye solutions were then titrated using twenty 15-μL injections, with 20 min equilibration intervals between each injection. The contents of the sample cell were stirred at 307 rpm with the impeller-shaped injector tip. The instrument software was used to integrate the raw ITC data obtained from these titrations. The heat of dilution, which was obtained by titrating the dye solutions into DI water, was then subtracted from the integrated data to obtain the final thermograms. To ensure reproducibility, each ITC test was repeated twice.
(§2) Fast Green FCF and Rhodamine B are anionic and cationic, respectively. ITC was used to probe the binding of these dye molecules to the ionically crosslinked networks. In ITC the heat required to maintain a sample cell (which contains a binding substrate solution) at a constant temperature upon the addition of a binding ligand solution is measured, with endothermic or exothermic peaks in the ITC raw data indicating binding. […]

[4] = test system: PAH/PPi complexes; assay: Isothermal titration calorimetry of dyes into PAH/PPi dispersion; type: binding; conditions: pH 7
Method: as §1, §2

[5] = in solution; cited from earlier work
[6] = PAH/PPi, initial dye 0.5 mg/ml, 10.0 wt % PAH
[7] = PAH/PPi, initial dye 1 mg/ml, 5% PAH
[8] = PAH/PPi, initial dye 1 mg/ml, 10% PAH
[9] = PAH/PPi, initial dye 1 mg/ml, 10.0 wt % PAH
[10] = PAH/PPi, initial dye 4 mg/ml, 10.0 wt % PAH
[11] = PAH/TPP, initial dye 0.5 mg/ml, 10.0 wt % PAH
[12] = PAH/TPP, initial dye 1 mg/ml, 5% PAH
[13] = PAH/TPP, initial dye 1 mg/ml, 10% PAH
[14] = PAH/TPP, initial dye 1 mg/ml, 10.0 wt % PAH
[15] = PAH/TPP, initial dye 4 mg/ml, 10.0 wt % PAH

Compound | Loading Capacity [2, 6] [mg/mL] | Loading Efficiency [2, 6] [%] | Loading Efficiency [2, 7] [%] | Loading Efficiency [2, 8] [%] | Loading Capacity [2, 9] [mg/mL] | Loading Capacity [2, 10] [mg/mL] | Loading Efficiency [2, 10] [%] | Loading Capacity [2, 11] [mg/mL] | Loading Efficiency [2, 11] [%] | Loading Efficiency [2, 12] [%] | Loading Efficiency [2, 13] [%] | Loading Capacity [2, 14] [mg/mL] | Loading Capacity [2, 15] [mg/mL] | Loading Efficiency [2, 15] [%] | binding to the ionically crosslinked network (ITC) [3] | binding to the ionically crosslinked network (ITC) [4] | other results
CCN(Cc1cccc(S(=O)(=O)[O-])c1)c1ccc(C(=C2C=CC(=[N+](CC)Cc3cccc(S(=O)(=O)[O-])c3)C=C2)c2ccc(O)cc2S(=O)(=O)[O-])cc1.[Na+].[Na+] [Fast Green, Fast Green FCF] | 3.16 ± 0.17 | 56.48 ± 3.04 | 61.69 ± 1.13 | 63.03 ± 1.37 | 7.04 ± 0.15 | 30.62 ± 0.93 | 68.54 ± 2.09 | 3.31 ± 0.07 | 64.01 ± 1.45 | 72.40 ± 0.53 | 72.94 ± 3.09 | 7.54 ± 0.32 | 30.89 ± 1.43 | 74.74 ± 3.47 | strong cooperative binding | strong cooperative binding | fraction of payload released [1]: < 5%
CCN(CC)c1ccc2c(-c3ccccc3C(=O)O)c3ccc(=[N+](CC)CC)cc-3oc2c1.[Cl-] [Rhodamine B] | 0.55 ± 0.16 | 9.83 ± 2.79 | 3.76 ± 0.45 | 6.38 ± 0.79 | 0.71 ± 0.09 | 3.46 ± 1.24 | 7.76 ± 2.77 | 0.45 ± 0.11 | 8.71 ± 2.10 | 3.78 ± 0.32 | 6.27 ± 1.04 | 0.65 ± 0.11 | 2.74 ± 0.58 | 6.62 ± 1.41 | binds only very weakly and non-cooperatively | binds only very weakly and non-cooperatively | Loading Efficiency ([2]; PAH/PPi, initial dye 1 mg/ml, 2.5% PAH): 1.49 ± 0.30%; Loading Efficiency ([2]; PAH/TPP, initial dye 1 mg/ml, 2.5% PAH): 1.59 ± 0.65%
tripolyphosphate [TPP] |  |  |  |  |  |  |  |  |  |  |  |  |  |  |  |  | pKa,3 [5]: 2.8; pKa,4 [5]: 6.5; pKa,5 [5]: 9.2
